Source: patent publication US8114442B2, “Transdermal pharmaceutical delivery compositions” (Queen Mary & Westfield College, priority 2008, dated 2012)

What was measured:
[1] = healthy 70 kg-adult; cited from earlier work
[2] = Pilot studies of local anaesthesia by pin-prick and thermal sensitivity testing; type: in vivo, human; details: applied directly to the skin without NO-generating gel; within 20 minutes
Description: The anaesthetic used in these initial studies was xylocalne as it was readily available in a pharmaceutical form for mixing.

For `COC(=O)[C@H]1[C@@H](OC(=O)c2ccccc2)C[C@@H]2CC[C@H]1N2C` [cocaine], the “generally accepted safe dosage for topical anaesthesia” value (“generally accepted safe dosage” for short) [1] is listed as 200 mg.

For `CCN(CC)CC(=O)Nc1c(C)cccc1C` [lidocaine], the “generally accepted safe dosage” value [1] is given as 750 mg.

For `CCCCNc1ccc(C(=O)OCCN(C)C)cc1` [tetracaine], the “generally accepted safe dosage” value [1] is listed as 50 mg.

In the case of `CCN(CC)CC(=O)Nc1c(C)cccc1C` [xylocalne], the level of anaesthesia [2] was “failed to produce any discernible level of anaesthesia”.
